Literature values in patent publication US11337939B2 (PULMONEM INC., priority 2020, dated 2022).

Key:
[1] = test system: human bronchial epithelial cells; settings: stimulated with lipopolysaccharide
[2] = test system: airway inflammation; settings: ferret

In the case of Nc1ccc(S(=O)(=O)c2ccc(N)cc2)cc1 [Dapsone, 4,4′-diaminodiphenyl sulfone], the “absorbed from the gastrointestinal tract” value (from the gastrointestinal tract) is given as 70%-80%, the “time to peak serum concentration” value (serum) is given as 2 to 6 h and the IL-8 secretion [1] is given as “inhibits IL-8 secretion”. The airway inflammation [2] was “resolves airway inflammation”.
